Structures can show the parent of a compound that is named as a salt.
Molecular target: hNav1.7 (Homo sapiens (Human), UniProt Q15858)
Assay: Patch voltage clamp electrophysiology (EP), Syncropatch 384PE, CHO cells stably expressing Nav1.7
Format: cell-based
Conditions: holding potential −50 mV, 7.5 min compound incubation, read-out: EP_SP hNav1.7 EVO IC50
Text: Example 64c. Electrophysiological Assay (EP) (In Vitro Assay)
Patch voltage clamp electrophysiology allows for the direct measurement and quantification of block of voltage-gated sodium channels (NaV's), and allows the determination of the time- and voltage-dependence of block which has been interpreted as differential binding to the resting, open, and inactivated states of the sodium channel (Hille, B., Journal of General Physiology (1977), 69: 497-515).
The following voltage clamp electrophysiology studies are performed on representative compounds using cells heterologously expressing Nav1.7 or Nav1.5 channels. cDNAs for Nav1.7 (NM_002977) and Nav1.5 (AC137587) are stably expressed in Chinese Hamstr Ovary (CHO) cells and CHL (Chinese Hamster Lung) cells respectively. Sodium currents are measured in the whole-cell configuration using Syncropatch 384PE (Nanlon Technologies, Germany). 1NPC®-384 chips with custom medium resistance and single hole mode are used. Internal solution consists of (in mM): […], 10 CsCl, 20 EGTA, and 10 Hepes (pH adjusted to 7.2); and external solution contains (in mM): 60 NMDG, 80 NaCl, 4 KCl, 1 MgCl2, 2 CaCl2, 2 D-Glucose monohydrate, 10 Hepes (pH adjusted to 7.4 with NaOH).
After system flushing, testing compounds are dissolved in external solution containing 0.1% Pluronic F-127. The chip is moved into the measuring head and the instrument primes the chip with external and internal solutions. 10 μl cells are added to the chip from a cell hotel, and a negative pressure of −50 mBar is applied to form a seal. Following treatment with seal enhancer solution and wash-off with external solution, negative pressure of −250 mbar is applied for 1 second to achieve the whole-cell configuration, followed by three washing steps in external solution. 20 μl of compounds is added to 40 μl in each well (1:3 dilution of compounds), and after mixing, 20 μl is removed so the volume is retained at 40 ul. After approximately 13 minutes recordings, 20 μl/well of 2 uM TTX, or 333 uM Tetracaine (for […]) is added to achieve full block.
For voltage protocol, an holding potential of −50 mV is applied during the whole experiment. A depolarizing step is applied to −10 mV for 10 ms, followed by a hyperpolarization step to −150 mV for 20 ms to allow channel recovery from inactivation. A second depolarizing step is applied from −150 mV to −10 mV for 10 ms, where currents are measured to derive blocking effects of compounds. Inhibition is determined based on 7.5 min of compound incubation.

hNav1.7, sequence (Q15858 other isoform, or with tags, fused parts or gaps): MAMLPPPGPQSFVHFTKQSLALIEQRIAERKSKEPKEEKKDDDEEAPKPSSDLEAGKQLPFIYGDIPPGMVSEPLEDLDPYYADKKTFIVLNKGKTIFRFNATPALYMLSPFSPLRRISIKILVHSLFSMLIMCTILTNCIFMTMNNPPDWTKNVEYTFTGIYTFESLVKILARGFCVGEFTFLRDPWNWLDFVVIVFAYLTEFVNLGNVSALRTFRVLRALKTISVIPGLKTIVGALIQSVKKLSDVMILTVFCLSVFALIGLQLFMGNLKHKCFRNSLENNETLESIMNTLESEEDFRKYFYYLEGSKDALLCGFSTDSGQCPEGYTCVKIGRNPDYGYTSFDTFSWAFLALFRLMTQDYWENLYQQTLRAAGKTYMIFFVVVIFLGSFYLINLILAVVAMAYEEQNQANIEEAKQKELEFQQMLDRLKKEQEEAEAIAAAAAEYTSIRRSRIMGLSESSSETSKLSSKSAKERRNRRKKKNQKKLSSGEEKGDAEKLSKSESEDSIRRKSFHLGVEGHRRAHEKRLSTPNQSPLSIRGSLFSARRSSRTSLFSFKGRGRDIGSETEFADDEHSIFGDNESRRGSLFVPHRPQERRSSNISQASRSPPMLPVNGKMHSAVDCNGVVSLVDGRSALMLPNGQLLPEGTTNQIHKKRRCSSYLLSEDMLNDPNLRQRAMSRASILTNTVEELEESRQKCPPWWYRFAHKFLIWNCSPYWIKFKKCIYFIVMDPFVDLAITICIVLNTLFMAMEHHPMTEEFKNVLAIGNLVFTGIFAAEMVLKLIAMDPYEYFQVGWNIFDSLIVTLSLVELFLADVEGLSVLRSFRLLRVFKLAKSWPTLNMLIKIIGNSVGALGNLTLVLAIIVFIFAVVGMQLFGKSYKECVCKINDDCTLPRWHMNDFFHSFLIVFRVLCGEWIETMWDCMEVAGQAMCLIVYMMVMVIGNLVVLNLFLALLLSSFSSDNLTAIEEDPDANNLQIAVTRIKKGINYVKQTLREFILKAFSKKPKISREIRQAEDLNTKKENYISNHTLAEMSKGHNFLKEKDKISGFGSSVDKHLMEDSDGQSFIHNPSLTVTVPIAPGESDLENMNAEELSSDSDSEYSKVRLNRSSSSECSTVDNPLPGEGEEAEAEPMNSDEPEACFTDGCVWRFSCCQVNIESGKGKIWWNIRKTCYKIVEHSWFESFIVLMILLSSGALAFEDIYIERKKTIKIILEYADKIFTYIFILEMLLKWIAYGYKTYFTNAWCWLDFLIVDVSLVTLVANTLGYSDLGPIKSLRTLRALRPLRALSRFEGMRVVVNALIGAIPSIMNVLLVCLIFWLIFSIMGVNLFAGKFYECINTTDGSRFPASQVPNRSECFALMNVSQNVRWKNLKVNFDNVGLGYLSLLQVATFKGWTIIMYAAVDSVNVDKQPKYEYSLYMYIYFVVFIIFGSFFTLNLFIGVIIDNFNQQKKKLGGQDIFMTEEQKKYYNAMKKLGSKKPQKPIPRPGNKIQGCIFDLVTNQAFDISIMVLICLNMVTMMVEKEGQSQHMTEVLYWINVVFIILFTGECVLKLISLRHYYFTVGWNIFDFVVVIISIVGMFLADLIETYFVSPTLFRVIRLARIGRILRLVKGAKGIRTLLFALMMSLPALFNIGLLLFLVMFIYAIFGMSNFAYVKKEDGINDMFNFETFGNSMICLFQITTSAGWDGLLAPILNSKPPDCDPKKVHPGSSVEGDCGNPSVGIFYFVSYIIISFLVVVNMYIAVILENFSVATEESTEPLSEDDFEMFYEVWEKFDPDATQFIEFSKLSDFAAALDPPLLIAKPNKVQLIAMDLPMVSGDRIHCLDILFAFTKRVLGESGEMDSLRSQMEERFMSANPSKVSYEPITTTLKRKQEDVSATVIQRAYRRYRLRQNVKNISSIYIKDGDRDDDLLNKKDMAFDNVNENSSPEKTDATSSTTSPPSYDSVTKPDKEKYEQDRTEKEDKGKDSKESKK

SMILES: O=S(=O)(Nc1ccncn1)c1cnc(O[C@H]2CC[C@H](c3cccc(C(F)(F)F)n3)C[C@@H]2N2CCCC2)c(Cl)c1 [Example 40, 5-chloro-N-(pyrimidin-4-yl)-6-(((1S,2S,4S)-2-(pyrrolidin-1-yl)-4-(6-(trifluoromethyl)pyridin-2-yl)cyclohexyl)oxy)pyridine-3-sulfonamide]
- IC50: 3.86 nM

SMILES: CN(C)[C@H]1C[C@@H](c2cccc(OC(F)(F)F)c2)CC[C@@H]1Oc1ncc(S(=O)(=O)Nc2ccncn2)cc1Cl [Example 13, 5-chloro-6-(((1S,2S,4S)-2-(dimethylamino)-4-(3-(trifluoromethoxy)phenyl)cyclohexyl)oxy)-N-(pyrimidin-4-yl)pyridine-3-sulfonamide]
- IC50: 1.55 nM

SMILES: Cc1nc(O[C@H]2CC[C@H](c3cc(Cl)cc(C(F)(F)F)c3)C[C@@H]2N(C)C)ccc1S(=O)(=O)Nc1ccncn1 [Example 49, 6-(((1S,2S,4S)-4-(3-chloro-5-(trifluoromethyl)phenyl)-2-(dimethylamino)cyclohexyl)oxy)-2-methyl-N-(pyrimidin-4-yl)pyridine-3-sulfonamide]
- IC50: 0.188 nM

SMILES: CN(C)[C@H]1C[C@@H](c2cccc(C(F)(F)F)c2)CC[C@@H]1Oc1ncc(S(=O)(=O)Nc2ccncn2)cc1Cl [Example 3, 5-Chloro-6-(((1S,2S,4S)-2-(dimethylamino)-4-(3-(trifluoromethyl)phenyl)cyclohexyl)oxy)-N-(pyrimidin-4-yl)pyridine-3-sulfonamide]
- IC50: 2.21 nM

SMILES: Cc1nc(O[C@H]2CC[C@H](c3cccc(C(F)(F)F)c3)C[C@@H]2N(C)C)c(F)cc1S(=O)(=O)Nc1ccncn1 [Example 53, 6-(((1S,2S,4S)-2-(Dimethylamino)-4-(3-(trifluoromethyl)phenyl)cyclohexyl)oxy)-5-fluoro-2-methyl-N-(pyrimidin-4-yl)pyridine-3-sulfonamide formate]
- IC50: 0.989 nM

SMILES: Cc1nc(O[C@H]2CC[C@H](c3cc(C(F)(F)F)ccc3F)C[C@@H]2N(C)C)ccc1S(=O)(=O)Nc1ccncn1 [Example 43, 6-(((1S,2S,4S)-2-(Dimethylamino)-4-(2-fluoro-5-(trifluoromethyl)phenyl)cyclohexyl)oxy)-2-methyl-N-(pyrimidin-4-yl)pyridine-3-sulfonamide formate]
- IC50: 0.687 nM

SMILES: Cc1ccc([C@H]2CC[C@H](Oc3ccc(S(=O)(=O)Nc4ccncn4)c(C)n3)[C@@H](N(C)C)C2)cc1C(F)(F)F [Example 56, 6-(((1S,2S,4S)-2-(dimethyl-amino)-4-(4-methyl-3-(trifluoromethyl)phenyl)-cyclohexyl)oxy)-2-methyl-N-(pyrimidin-4-yl)pyridine-3-sulfonamide formate]
- IC50: 0.13 nM

SMILES: CN(C)[C@H]1C[C@@H](c2cccc(SC(F)(F)F)c2)CC[C@@H]1Oc1ccc(S(=O)(=O)Nc2ccncn2)cn1 [Example 63, 6-(((1S,2S,4S)-2-(dimethy-lamino)-4-(3-((trifluoro-methyl)thio)phenyl)cyclohexyl)oxy)-N-(pyrimidin-4-yl) pyridine-3-sulfonamide]
- IC50: 1.05 nM

SMILES: Cc1cc(S(=O)(=O)Nc2ccncn2)cnc1O[C@H]1CC[C@H](c2cccc(C(F)(F)F)c2)C[C@@H]1N(C)C [Example 15, 6-(((1S,2S,4S)-2-(Dimethylamino)-4-(3-(trifluoromethyl)phenyl)cyclohexyl)oxy)-5-methyl-N-(pyrimidin-4-yl)pyridine-3-sulfonamide]
- IC50: 4.23 nM

SMILES: Cc1nc(O[C@H]2CC[C@H](c3cc(C(F)(F)F)ccc3Cl)C[C@@H]2N(C)C)ccc1S(=O)(=O)Nc1ccncn1 [Example 38, 6-(((1S,2S,4S)-4-(2-chloro-5-(trifluoromethyl)phenyl)-2-(dimethylamino)cyclohexyl)oxy)-2-methyl-N-(pyrimidin-4-yl)pyridine-3-sulfonamide]
- IC50: 0.409 nM

SMILES: Cc1nc(O[C@H]2CC[C@H](c3cccc(C(F)(F)F)c3)C[C@@H]2N(C)C)ccc1S(=O)(=O)Nc1ccncn1 [Example 23, 6-(((1S,2S,4S)-2-(Dimethylamino)-4-(3-(trifluoromethyl)phenyl)cyclohexyl)oxy)-2-methyl-N-(pyrimidin-4-yl)pyridine-3-sulfonamide formate]
- IC50: 0.765 nM

SMILES: Cc1nc(O[C@H]2CC[C@H](c3cccc(OC(F)(F)F)c3)C[C@@H]2N2CCCC2)ccc1S(=O)(=O)Nc1ccncn1 [Example 30, 2-Methyl-N-(pyrimidin-4-yl)-6-(((1S,2S,4S)-2-(pyrrolidin-1-yl)-4-(3-(trifluoromethoxy)phenyl)-cyclohexyl)oxy)pyridine-3-sulfonamide]
- IC50: 1.07 nM

SMILES: CN(C)[C@H]1C[C@@H](c2cccc(OC(F)(F)F)c2)CC[C@@H]1Oc1ccc(S(=O)(=O)Nc2ccncn2)cn1 [Example 25, 6-(((1S,2S,4S)-2-(dimethylamino)-4-(3-(trifluoromethoxy)phenyl)cyclohexyl)oxy)-N-(pyrimidin-4-yl)pyridine-3-sulfonamide formate]
- IC50: 3.51 nM

SMILES: CN(C)[C@H]1C[C@@H](c2cccc(C(F)(F)F)c2)CC[C@@H]1Oc1ncc(S(=O)(=O)Nc2ccncn2)cc1C1CC1 [Example 7, 5-Cyclopropyl-6-(((1S,2S,4S)-2-(dimethylamino)-4-(3-(trifluoromethyl)phenyl)cyclohexyl)oxy)-N-(pyrimidin-4-yl)pyridine-3-sulfonamide formate]
- IC50: 1.16 nM

SMILES: CN(C)[C@H]1C[C@@H](c2cc(C(F)(F)F)ccc2F)CC[C@@H]1Oc1ccc(S(=O)(=O)Nc2ccncn2)c(Cl)n1 [Example 44, 2-Chloro-6-(((1S,2S,4S)-2-(dimethylamino)-4-(2-fluoro-5-(trifluoromethyl)phenyl)-cyclohexyl)oxy)-N-(pyrimidin-4-yl)pyridine-3-sulfonamide formate]
- IC50: 1.81 nM

SMILES: Cc1nc(O[C@H]2CC[C@H](c3cccc(C(F)(F)F)c3)C[C@@H]2N2CCCC2)ccc1S(=O)(=O)Nc1ccncn1 [Example 29, 2-Methyl-N-(pyrimidin-4-yl)-6-(((1S,2S,4S)-2-(pyrrolidin-1-yl)-4-(3-(trifluoromethyl)phenyl)-cyclohexyl)oxy)pyridine-3-sulfonamide]
- IC50: 5.62 nM

SMILES: CN(C)[C@H]1C[C@@H](c2cccc(C(F)(F)F)c2)CC[C@@H]1Nc1ncc(S(=O)(=O)Nc2ccncn2)cc1Cl [Example 4, 5-Chloro-6-(((1S,2S,4S)-2-(dimethylamino)-4-(3-(trifluoromethyl)phenyl)cyclohexyl)amino)-N-(pyrimidin-4-yl)pyridine-3-sulfonamide]
- IC50: 0.765 nM

SMILES: CCc1nc(O[C@H]2CC[C@H](c3cccc(C(F)(F)F)c3)C[C@@H]2N(C)C)ccc1S(=O)(=O)Nc1ccncn1 [Example 33, 6-(((1S,2S,4S)-2-(Dimethylamino)-4-(3-(trifluoromethyl)phenyl)cyclohexyl)oxy)-2-ethyl-N-(pyrimidin-4-yl)pyridine-3-sulfonamide]
- IC50: 16.3 nM

SMILES: Cc1ccc(C(F)(F)F)cc1[C@H]1CC[C@H](Oc2ccc(S(=O)(=O)Nc3ccncn3)c(C)n2)[C@@H](N(C)C)C1 [Example 54, 6-(((1S,2S,4S)-2-(dimethyl-amino)-4-(2-methyl-5-(trifluoromethyl)phenyl)-cyclohexyl)oxy)-2-methyl-N-(pyrimidin-4-yl)pyridine-3-sulfonamide]
- IC50: 0.404 nM

SMILES: CN(C)[C@H]1C[C@@H](c2cccc(C(F)(F)F)c2)CC[C@@H]1Oc1ccc(S(=O)(=O)Nc2ccncn2)cn1 [Example 1, 6-(((1S,2S,4S)-2-(Dimethylamino)-4-(3-(trifluoromethyl)phenyl)cyclohexyl)oxy)-N-(pyrimidin-4-yl)pyridine-3-sulfonamide]
- IC50: 0.9 nM

SMILES: Cc1nc(O[C@H]2CC[C@H](c3cccc(C(F)(F)F)c3F)C[C@@H]2N(C)C)ccc1S(=O)(=O)Nc1ccncn1 [Example 46, 6-(((1S,2S,4S)-2-(Dimethylamino)-4-(2-fluoro-3-(trifluoromethyl)phenyl)cyclohexyl)oxy)-2-methyl-N-(pyrimidin-4-yl)pyridine-3-sulfonamide formate]
- IC50: 0.917 nM

SMILES: O=S(=O)(Nc1ccncn1)c1ccc(O[C@H]2CC[C@H](c3cccc(C(F)(F)F)c3)C[C@@H]2N2CCCC2)nc1 [Example 17, N-(pyrimidin-4-yl)-6-(((1S,2S,4S)-2-(pyrrolidin-1-yl)-4-(3-(trifluoromethyl)phenyl)cyclohexyl)oxy)-pyridine-3-sulfonamide formate]
- IC50: 0.602 nM

SMILES: Cc1nc(O[C@H]2CC[C@H](c3cccc(CC(F)(F)F)c3)C[C@@H]2N(C)C)ccc1S(=O)(=O)Nc1ccncn1 [Example 59, 6-(((1S,2S,4S)-2-(dimethyl-amino)-4-(3-(2,2,2-trifluoro-ethyl)phenyl)-cyclohexyl)-oxy)-2-methyl-N-(pyrimidin-4-yl)pyridine-3-sulfonamide]
- IC50: 0.942 nM

Reference: patent publication US20250115576A1, “THERAPEUTIC COMPOUNDS AND METHODS OF USE THEREOF” (Genentech, Inc., priority 2018, published 2025)
